Measured values as given in patent US11925643B2, “Toll-like receptor 4 (TLR4) inhibitors and use thereof” (MOR RESEARCH APPLICATIONS LTD., priority 2018, dated 2024).
Non-standard residues stand in square brackets, D forms with d. Residues, ends and D or L forms follow the SMILES beside them. 1Nal = N[C@@H](Cc1cccc2ccccc12)C(=O)O

Legend:
primary cardiomyocytes [1] = assay: CK and LDH release by primary cardiomyocytes under LPS treatment (sepsis like); assay type: cell-based, Rat; details: LPS system; 10 μM
Description: (§1) Rat hearts (1-2 days old) were removed under sterile conditions and washed three times in phosphate-buffered saline (PBS) to remove excess blood cells. The hearts were minced and then gently agitated in RBD (a solution of proteolytic enzymes (Biological Institute, Ness-Ziona, Israel) prepared from fig tree extract, and diluted 1:100 in Ca^2+- and Mg^2+-free PBS) for a few cycles of 10 min each. Dulbecco's modified Eagle's medium (Biological Industries, Kibbutz Beit Haemek, Israel) containing 10% horse serum was added to supernatant suspensions containing the dissociated cells. The mixture was centrifuged at 1400 rpm for 4 min. The supernatant phase was discarded, and the cells were re-suspended. The cell suspension was diluted to 1.0×10^6 cells/ml, unless stated otherwise, and 1.5 ml of the suspension was placed in 35-mm plastic culture dishes collagen- or gelatin-coated, or on coated cover glasses. The cultures were incubated in a humidified atmosphere of 5% CO2 and 95% air at 37° C.
(§2) Primary cardiomyocytes which were obtained by method described above, were treated with exemplary decoy peptides described herein. After 30 minutes of incubation, sepsis like (LPS treatment for 6 hours), or myocardial infarction (MI) like (hypoxia for 3 hours) conditions were imposed to measure the release of CK and LDH to the medium and determine the potential cardioprotective effect of the tested decoy peptides. Cytotoxicity and level of cell damage were assessed by spectrophotometric measurement of lactate dehydrogenase (LDH) and creatine kinase (CK) activities (at 30° C.). Results are presented as CK and LDH release in arbitrary units (a.u.)
(§3) Activity of LDH and CK was determined in the cell-culture medium (25 μl) transferred into 96-well plates, using commercial L-LDH/CK kits (such as those manufactured, e.g., by Sigma-Aldrich, BioVision™ or Thermo Fisher Scientific®).
(§4) Primary cardiomyocytes were treated with peptides and peptidomimetics of SEQ ID NOs:1-7 provided at concentrations ranging from 1 μM to 20 μM. Following 30 minutes of incubation, sepsis like (LPS treatment for 6 hours) or MI like (hypoxia for 3 hours) conditions were induced to determine the potential cardioprotective effect of the tested compounds. Creatine kinase (CK) and lactate dehydrogenase (LDH) activity were assayed to determine the level of cellular damage and cell protection effect. The experimental procedure is described in Materials and Methods above. Results are presented as CK and LDH release in arbitrary units (a.u.).

primary cardiomyocytes [2] = assay: CK and LDH release by primary cardiomyocytes under hypoxia (MI like); assay type: cell-based, Rat; details: 10 μM, FIGS. 2A, 2B
Description: as §1
Using a vacuum pump, the oxygen rich air was evacuated from an incubator containing plates with cell cultures, and a 100% Argon atmosphere was let in, while maintaining a temperature of 37° C. The cell cultures were washed with PBS twice to remove glucose from the medium. Hypoxic treated cells were cultures in PBS without glucose. These cells lasted for 180 minutes.
as §2, §3, §4

TLR4 = target: T1, TLR4 (Homo sapiens, UniProt O00206); assay: FACS analysis of TLR4 expressed by macrophages exposed to LPS; assay type: cell-based; details: 10 μM
T1 construct: FACS analysis to test the expression of TLR4 protein by macrophages under LPS treatment; endogenous in cells; host or cells: human peripheral-blood monocytes differentiated into macrophages with M-CSF
T1 sequence (O00206 24-839): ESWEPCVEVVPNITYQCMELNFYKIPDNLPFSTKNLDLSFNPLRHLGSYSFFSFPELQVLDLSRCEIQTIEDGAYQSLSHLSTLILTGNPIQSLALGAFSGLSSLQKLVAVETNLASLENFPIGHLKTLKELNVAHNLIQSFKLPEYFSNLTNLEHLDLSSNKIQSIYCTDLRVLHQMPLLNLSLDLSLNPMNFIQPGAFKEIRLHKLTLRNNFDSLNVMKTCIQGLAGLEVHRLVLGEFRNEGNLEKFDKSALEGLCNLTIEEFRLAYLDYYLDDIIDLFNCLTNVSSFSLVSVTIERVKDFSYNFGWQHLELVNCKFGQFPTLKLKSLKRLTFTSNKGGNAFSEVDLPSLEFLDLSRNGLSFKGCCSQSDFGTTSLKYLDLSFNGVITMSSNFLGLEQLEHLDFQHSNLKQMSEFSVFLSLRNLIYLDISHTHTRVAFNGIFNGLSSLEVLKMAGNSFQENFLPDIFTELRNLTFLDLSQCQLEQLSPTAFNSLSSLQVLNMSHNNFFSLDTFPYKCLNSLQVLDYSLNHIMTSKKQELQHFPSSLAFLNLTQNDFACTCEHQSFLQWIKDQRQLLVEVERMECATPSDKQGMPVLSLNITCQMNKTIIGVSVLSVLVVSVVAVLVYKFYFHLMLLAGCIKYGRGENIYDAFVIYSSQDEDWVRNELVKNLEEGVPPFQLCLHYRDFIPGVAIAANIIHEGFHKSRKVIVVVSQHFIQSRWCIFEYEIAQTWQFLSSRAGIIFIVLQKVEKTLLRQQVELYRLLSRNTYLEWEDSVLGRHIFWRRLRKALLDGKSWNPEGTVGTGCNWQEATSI
Description: Flow cytometry is an analytical cell-biology technique that utilizes light to count and profile cells in a heterogenous fluid mixture. Flow cytometry analysis was used to evaluate binding of antibodies to TLR4 presenting cells. In this assay, an anti-TLR4 antibody was added to a monocytes suspension and cells which bound the antibody were visualized by a fluorescently labeled secondary antibody that bound to the anti-TLR4 antibody (Ab). Accordingly, samples were first “labeled” with the anti-TLR4 antibody, then incubated with Fluor® 488 conjugated to a secondary Ab for TLR4 (CD284) positive cells visualization.
In order to confirm the specificity of binding, and further in order to correct for non-specific or background staining, isotypes control mouse IgGs were added to cell suspensions at the same concentration as the anti-TLR4 Abs. To deduct the non-specific or background staining from the positive staining due to direct Ab binding to the antigen, the level of background staining was assessed by the use of the same fluorochrome as that used for staining the anti-TLR4 Ab.
Peripheral blood (30 ml) was obtained for the isolation of monocytes. Monocytes were purified by density gradient centrifugation as described above, and/or by adherence to plastic in RPMI 1640 medium supplemented with 10% fetal bovine serum (FBS) and antibiotics. Peripheral blood mononuclear cells (PBMCs) (10^6 cells/ml) were first seeded into 24-well plates (0.5 ml per well), after 2 hours, non-adherent cells were removed by several washes with warm PBS.
Monocytes freshly isolated either by density gradient centrifugation by adherence differentiated into macrophages in complete RPMI 1640 medium supplemented with human recombinant macrophage colony stimulating factor (100 ng/ml) for 6 days. To confirm macrophage cell lineage, direct immunostaining was performed with an antibody directed against CD11b/mac1 (Biolegend® Inc., San Diego, Calif., USA). Eighty percent (80%) of positive staining was observed by flow cytometry analysis. The proportion of TLR4 in this separated cell fraction was examined by FACS analysis using, as isotype control, mouse IgG2a IsoControl (eBioscience™ #53-4724-80), and mouse anti-human CD284 Alexa Fluor® 488 Clone FITA125 secondary Ab (Isotype IgG2a. eBioscience™ #53-9917-41), which recognizes the human TLR4 (also known as CD284) cell surface antigen. Cells were analyzed in a BC Gallios Flow Cytometer (Beckman Coulter, Indianapolis Ind., USA) and were initially gated on the basis of forward and side scatter characteristics. Kaluza Software was used to analyze the results. Results are expressed as mean fluorescence intensity (MFI) and also as normalized to control. […]

TLR2 mRNA = TLR2 mRNA level by RT-qPCR in hypoxic cardiomyocytes (negative control); assay type: cell-based; details: hypoxic conditions
Description: (§5) Real-time RT-PCR experiments were performed in duplicates on an ABI 7900 instrument (Applied Biosystems™) using Taqman™ Master Mix (Applied Biosystems™). The average threshold cycles (Ct) of the duplicates were used to calculate the relative expression levels of the following genes: TLR4 (Applied Biosystems™ assay primer ID: Mm00569848_m1 Tlr4), TLR2 (assay primer ID: Mm01769726_m1 Tlr2), TNF-α (assay primer ID: Mm00443260_g1 Tnf) and IL-1β (assay primer ID: Mm00434228_m1 II1b) in vitro and in vivo following hypoxia or ischemia, respectively. The reference gene was TBP and the primer used was derived from mouse TATA-box binding protein (Applied Biosystems™ assay primer ID: Mm00446973_m1 Tbp). Amounts of TLR2, TLR4, TNF-α and IL-1β mRNAs in each sample were calculated relative to TBP mRNA, based on the corresponding Cts, as Relative Quantity (RQ) values, and normalized taking as 1 a randomly selected sample of the control group (TBP mRNA). Calculation were performed using the Applied Biosystems Analysis™ software (StepOnePlus V2.2.2). All mRNA scores are presented in arbitrary units.
Next, peptidomimetics of SEQ ID NOs:1 and 2 were tested for their ability to affect the expression of TLR4. The level of TLR4 mRNA was measured by real-time reverse transcriptase polymerase chain reaction (RT-qPCR) method as described in Materials and Methods. […]

TLR4 mRNA = TLR4 mRNA level by RT-qPCR in hypoxic cardiomyocytes; assay type: cell-based; details: hypoxic conditions
Description: as §5
Next, peptidomimetics of SEQ ID NOs:1 and 2 were tested for their ability to affect the expression of TLR4. The level of TLR4 mRNA was measured by real-time reverse transcriptase polymerase chain reaction (RT-qPCR) method as described in Materials and Methods. The possible effect of both compounds on expression levels of TLR2 mRNA was used as a negative control.

IκB = IκB protein level by Western blot in hypoxic cardiomyocytes; assay type: cell-based; details: normalized to β-actin
Description: Frozen tissue/cell cultures of liver or heart were pulverized under liquid nitrogen and placed in a homogenization buffer ([…] phosphate buffer, […] sucrose, […] EDTA, […] phenylmethylsulfonyl fluoride (PMSF), and 0.1% vol/vol tergitol, pH 7.5). Myocytes from cell cultures were homogenized in lysis buffer.
Homogenates were centrifuged at 12K rpm for 10 minutes at 4° C., the supernatant was isolated, and protein levels were visualized by immunoblotting with antibodies. Briefly, proteins (60 μg/sample) were separated using SDS-PAGE gel (12%-15%) under denaturing conditions and electro-transferred (blotted) onto nitrocellulose (Bio-Rad) for 1 hour at 100 V. Membranes were blocked with 5% nonfat milk in Tris-buffered saline with 0.1% Tween® 20 (TBST) for 1 hour at room temperature. Primary antibodies were used at a 1:200-1:1000 concentration in TBST with 5% nonfat milk overnight at 4° C. Immunodetection of β-actin/GPDH was performed as an internal control. Dye 800/680 secondary antibodies were added at a concentration of 1:15000 for 1 hour at room temperature (LI-COR® Biosciences, NE, USA). Detection was carried out with LI-CORE® Odyssey® imaging system. Quantification of signals was carried out with the Odyssey® program.
The mechanism of action of peptidomimetics of SEQ ID NOs:1, 2 and 12 was studied in vitro in cardiomyocytes, under hypoxic conditions, by determining the expression level of the IκB gene, which is regulated by activation of TLR4, and by measuring the TLR4 mRNA levels. In addition, TLR4 expression level was measured in macrophage (derived from monocytes) treated with LPS.
IκB protein level was determined by Western blot as described in Material and Methods. The amount of IκB was normalized via-a-vis the amount of β-actin serving as the loading control (the β-actin is coded by a housekeeping gene and its level is expected to remain constant under any experimental conditions).

SMILES: CC(C)[C@H](NC(=O)CN[C@@H](C)C(C)(C)C)C(=O)N[C@@H](Cc1ccccc1)C(=O)N[C@@H](C)C(N)=O [SEQ ID NO:17, (S)-N-((S)-1-(((S)-1-amino-1-oxopropan-2-yl)amino)-1-oxo-3-phenylpropan-2-yl)-2-(2-(((S)-3,3-dimethylbutan-2-yl)amino)acetamido)-3-methylbutanamide]
- cellular protection / cytoprotective effect (CK and LDH release) (primary cardiomyocytes [1]): significant cytoprotective effect

SMILES: CC(=O)N[C@@H](Cc1ccccc1)C(=O)NCCC(=O)N[C@@H](CCC(=O)O)C(N)=O [SEQ ID NO:9, (S)-4-(3-((S)-2-acetamido-3-phenylpropanamido)propanamido)-5-amino-5-oxopentanoic acid]
- cell protective effect (CK and LDH release) (primary cardiomyocytes [2]): substantial cell protective effect

SMILES: CC(=O)NC(C(=O)N[C@@H](C)C(=O)N[C@@H](CCC(=O)O)C(N)=O)c1cccc2ccccc12 (stereo partly drawn) [SEQ ID NO:11, (4S)-4-((2S)-2-(2-acetamido-2-(naphthalen-1-yl)acetamido)propanamido)-5-amino-5-oxopentanoic acid]
- cell protective effect (CK and LDH release) (primary cardiomyocytes [2]): substantial cell protective effect

SMILES: CC(=O)N[C@H](C(=O)N[C@@H](Cc1ccccc1)C(=O)N[C@@H](C)C(=O)N[C@@H](CCC(=O)O)C(N)=O)C(C)C [SEQ ID NO:2, (4S,7S,10S,13S)-7-benzyl-13-carbamoyl-4-isopropyl-10-methyl-2,5,8,11-tetraoxo-3,6,9,12-tetraazahexadecan-16-oic acid] (Ac-VFAE-NH2)
- TLR4 expression level (TLR4; 30 min before LPS (100 ng/ml or 20 μg/ml), 4 hours): toward baseline levels
- lowering the expression of TLR4 in the presence of LPS, compared with SEQ ID NO: 25 (TLR4; low and high LPS): more effective
- TLR2 mRNA expression level (TLR2 mRNA): relatively unaffected
- TLR4 mRNA expression level (TLR4 mRNA): significantly decreased

SMILES: CC(=O)N[C@@H](Cc1ccccc1)C(=O)N[C@@H](C)C(=O)N[C@@H](CCC(=O)O)C(N)=O [SEQ ID NO:8, (S)-4-((S)-2-((S)-2-acetamido-3-phenylpropanamido)propanamido)-5-amino-5-oxopentanoic acid] (Ac-Phe-Ala-Glu-NH2)
- cell protective effect (CK and LDH release) (primary cardiomyocytes [2]): substantial cell protective effect

SMILES: CC(=O)N[C@H](C(=O)N[C@@H](Cc1cccc2ccccc12)C(=O)N[C@@H](C)C(=O)N[C@@H](CCC(=O)O)C(N)=O)C(C)C [SEQ ID NO:19, (4S,7S,10S,13S)-13-carbamoyl-4-isopropyl-10-methyl-7-(naphthalen-1-ylmethyl)-2,5,8,11-tetraoxo-3,6,9,12-tetraazahexadecan-16-oic acid] (Ac-V[1Nal]AE-NH2)
- cellular protection / cytoprotective effect (CK and LDH release) (primary cardiomyocytes [1]): significant cytoprotective effect

SMILES: CC[C@H](C)[C@H](NC(C)=O)C(=O)N[C@H](C(=O)NC(C(=O)N[C@@H](C)C(N)=O)c1cccc2ccccc12)C(C)C (stereo partly drawn) [SEQ ID NO:12, (2S,3S)-2-acetamido-N-((2S)-1-((2-(((S)-1-amino-1-oxopropan-2-yl)amino)-1-(naphthalen-1-yl)-2-oxoethyl)amino)-3-methyl-1-oxobutan-2-yl)-3-methylpentanamide]
- IκB level (IκB): high levels
